Results: ChEMBL document CHEMBL1287706 (Bioorg Med Chem, 2010)
pKi: −log10 of the molar value. Structures can show the parent of a compound that is named as a salt.

Key:
Transporter = Transporter (Rattus norvegicus, UniProt Q63380); assay: biochemical; assay type: tissue-based, Sprague-Dawley, Frontal cortex
Description: Displacement of [3H]nisoxetine from norepinephrine transporter in Sprague-Dawley rat frontal cortex after 1 hr by liquid scintillation counting

[1] = target: Sodium-dependent serotonin transporter (Rattus norvegicus, UniProt P31652); design: species or system Sprague-Dawley;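 note: radioligand competition using [3H]citalopram bound to serotonin transporter in Sprague-Dawley rat brain tissue, 1 h incubation, bound radioactivity quantified by liquid scintillation counting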
Description: Displacement of [3H]citalopram from serotonin transporter in Sprague-Dawley rat brain after 1 hr by liquid scintillation counting

[2] = target: Sodium-dependent dopamine transporter (Rattus norvegicus, UniProt P23977); assay: biochemical; assay type: tissue-based, Sprague-Dawley, Brain
Sodium-dependent dopamine transporter, sequence (P23977 whole entry): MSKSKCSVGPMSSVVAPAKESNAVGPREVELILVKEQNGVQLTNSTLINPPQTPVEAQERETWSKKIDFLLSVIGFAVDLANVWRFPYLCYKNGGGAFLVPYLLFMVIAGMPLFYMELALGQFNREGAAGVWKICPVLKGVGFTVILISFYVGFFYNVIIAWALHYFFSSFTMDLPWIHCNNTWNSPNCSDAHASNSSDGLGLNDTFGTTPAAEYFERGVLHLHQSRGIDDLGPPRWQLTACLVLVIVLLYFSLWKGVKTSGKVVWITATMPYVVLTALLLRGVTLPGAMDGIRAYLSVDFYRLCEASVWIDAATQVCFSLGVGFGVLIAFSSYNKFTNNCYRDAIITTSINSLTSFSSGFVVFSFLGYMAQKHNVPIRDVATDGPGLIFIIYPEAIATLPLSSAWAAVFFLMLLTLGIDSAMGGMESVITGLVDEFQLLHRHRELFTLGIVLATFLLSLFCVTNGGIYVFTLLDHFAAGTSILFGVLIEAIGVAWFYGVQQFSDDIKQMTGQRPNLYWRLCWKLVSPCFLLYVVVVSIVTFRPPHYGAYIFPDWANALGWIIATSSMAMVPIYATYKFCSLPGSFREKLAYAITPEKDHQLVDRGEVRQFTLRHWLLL

Sodium-dependent serotonin transporter, sequence (P31652 whole entry): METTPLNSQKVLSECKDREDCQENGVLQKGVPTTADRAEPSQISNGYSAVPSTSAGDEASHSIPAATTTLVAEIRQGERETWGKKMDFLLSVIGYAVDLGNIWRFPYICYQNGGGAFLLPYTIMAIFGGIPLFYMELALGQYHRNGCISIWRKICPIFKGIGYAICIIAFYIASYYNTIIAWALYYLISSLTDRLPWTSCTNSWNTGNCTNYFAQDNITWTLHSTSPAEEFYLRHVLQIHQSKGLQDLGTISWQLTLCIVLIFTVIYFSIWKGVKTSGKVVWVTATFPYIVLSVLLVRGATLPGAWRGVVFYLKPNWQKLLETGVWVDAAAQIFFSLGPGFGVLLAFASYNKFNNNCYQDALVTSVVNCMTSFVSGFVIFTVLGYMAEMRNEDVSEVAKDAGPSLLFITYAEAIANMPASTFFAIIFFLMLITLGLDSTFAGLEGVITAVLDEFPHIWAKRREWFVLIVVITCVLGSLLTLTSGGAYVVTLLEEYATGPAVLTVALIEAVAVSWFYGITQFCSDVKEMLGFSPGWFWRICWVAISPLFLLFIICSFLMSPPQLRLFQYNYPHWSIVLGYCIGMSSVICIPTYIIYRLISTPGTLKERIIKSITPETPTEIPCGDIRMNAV
Transporter, sequence (Q63380 whole entry): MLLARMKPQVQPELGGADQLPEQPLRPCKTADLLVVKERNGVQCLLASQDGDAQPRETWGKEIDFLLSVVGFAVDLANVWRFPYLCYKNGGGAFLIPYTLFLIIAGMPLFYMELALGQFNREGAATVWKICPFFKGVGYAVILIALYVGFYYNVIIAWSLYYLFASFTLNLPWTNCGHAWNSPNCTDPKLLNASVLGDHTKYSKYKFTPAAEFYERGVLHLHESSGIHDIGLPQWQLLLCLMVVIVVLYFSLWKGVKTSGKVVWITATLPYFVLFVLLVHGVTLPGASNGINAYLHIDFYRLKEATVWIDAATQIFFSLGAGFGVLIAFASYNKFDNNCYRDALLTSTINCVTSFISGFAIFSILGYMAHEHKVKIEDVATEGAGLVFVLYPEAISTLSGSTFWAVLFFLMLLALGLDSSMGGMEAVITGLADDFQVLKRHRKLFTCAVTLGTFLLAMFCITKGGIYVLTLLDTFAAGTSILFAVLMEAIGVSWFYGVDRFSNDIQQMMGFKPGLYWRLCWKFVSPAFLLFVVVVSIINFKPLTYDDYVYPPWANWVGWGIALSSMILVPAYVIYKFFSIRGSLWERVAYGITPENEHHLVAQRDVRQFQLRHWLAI

With `COc1ccc(COC(=O)C2(c3ccc4ccccc4c3)CCNCC2)cc1` the pKi (Transporter) was 5.63, the pKi [1] was 8.54 and the pKi [2] was 6.05.

Work on `CN1CCC(C(=O)OCc2ccc(-c3ccccc3)cc2)(c2ccc(Cl)c(Cl)c2)CC1` yielded a pKi [1] of 7.96 and a pKi [2] of 5.25.

With `O=C(OCc1ccc(Cl)c(Cl)c1)C1(c2ccc(I)cc2)CCNCC1` the pKi (Transporter) was 5.22, the pKi [1] was 8.23 and the pKi [2] was 5.36.

Work on `O=C(OCc1ccc([N+](=O)[O-])cc1)C1(c2ccc(I)cc2)CCNCC1` yielded a pKi (Transporter) of 5.68, a pKi [1] of 8.23 and a pKi [2] of 5.75.

Compound `COc1ccc(COC(=O)C2(c3ccc(I)cc3)CCNCC2)cc1` has a pKi (Transporter) of 5.56, a pKi [1] of 9.22 and a pKi [2] of 5.53.

`CN1CCC(C(=O)OCc2ccc(Cl)c(Cl)c2)(c2ccc(Cl)c(Cl)c2)CC1` showed a pKi [1] of 8.37 and a pKi [2] of 5.28.

Work on `O=C(OCc1ccc(Cl)c(Cl)c1)C1(c2ccc(Cl)c(Cl)c2)CCNCC1` yielded a pKi (Transporter) of 4.92, a pKi [1] of 7.52 and a pKi [2] of 5.54.

For `CN1CCC(C(=O)OCc2ccccc2)(c2ccc(Cl)c(Cl)c2)CC1`, the pKi (Transporter) was 6.05, the pKi [1] was 8.41 and the pKi [2] was 5.53.

`O=C(OCc1ccccc1)C1(c2ccc(-c3ccccc3)cc2)CCNCC1` showed a pKi [1] of 8.70 and a pKi [2] of 5.96.

`CN1CCC(C(=O)OCc2ccc(Br)cc2)(c2ccc(Cl)c(Cl)c2)CC1` gave a pKi (Transporter) of 6.24, a pKi [1] of 8.15 and a pKi [2] of 5.59.

Work on `CCOC(=O)C1(c2ccc(I)cc2)CCN(C)CC1` yielded a pKi (Transporter) of 3.28.

`O=C(OCc1ccc([N+](=O)[O-])cc1)C1(c2ccc(Cl)c(Cl)c2)CCNCC1` was tested, and the pKi (Transporter) was 5.84, the pKi [1] was 8.19 and the pKi [2] was 5.89.

For `CN1CCC(C(=O)OCc2ccc3ccccc3c2)(c2ccc(Cl)c(Cl)c2)CC1`, the pKi (Transporter) was 5.59, the pKi [1] was 8.00 and the pKi [2] was 5.31.

`O=C(OCc1ccc([N+](=O)[O-])cc1)C1(c2ccc3ccccc3c2)CCNCC1` was tested, and the pKi (Transporter) was 6.03, the pKi [1] was 8.70 and the pKi [2] was 6.14.

Compound `CCOC(=O)C1(c2ccc(I)cc2)CCNCC1` has a pKi [1] of 8.60 and a pKi [2] of 5.46.

Compound `CN1CCC(C(=O)OCc2ccccc2)(c2ccc(-c3ccccc3)cc2)CC1` has a pKi [1] of 7.31 and a pKi [2] of 5.64.

With `COc1ccc(COC(=O)C2(c3ccc(Cl)c(Cl)c3)CCN(C)CC2)cc1` the pKi (Transporter) was 6.52, the pKi [1] was 8.77 and the pKi [2] was 5.55.

`COc1ccc(COC(=O)C2(c3ccc(Cl)c(Cl)c3)CCNCC2)cc1` showed a pKi (Transporter) of 5.50, a pKi [1] of 7.99 and a pKi [2] of 5.90.

Work on `CCOC(=O)C1(c2ccc3ccccc3c2)CCN(C)CC1` yielded a pKi (Transporter) of 4.15.

With `CN1CCC(C(=O)OCc2ccc([N+](=O)[O-])cc2)(c2ccc(Cl)c(Cl)c2)CC1` the pKi (Transporter) was 6.48, the pKi [1] was 9.00 and the pKi [2] was 5.82.

`O=C(OCc1ccccc1)C1(c2ccc(Cl)c(Cl)c2)CCNCC1` gave a pKi [1] of 8.04 and a pKi [2] of 6.04.

For `CN1CCC(C(=O)OCc2ccc(I)cc2)(c2ccc(Cl)c(Cl)c2)CC1`, the pKi [1] was 7.88 and the pKi [2] was 5.46.

In the case of `CCOC(=O)C1(c2ccc3ccccc3c2)CCNCC1`, the pKi [1] was 7.85 and the pKi [2] was 6.15.

`O=C(OCc1ccc(C(F)(F)F)cc1)C1(c2ccc(Cl)c(Cl)c2)CCNCC1` was tested, and the pKi (Transporter) was 5.10, the pKi [1] was 7.33 and the pKi [2] was 5.65.

Work on `CCOC(=O)C1(c2ccc(Cl)c(Cl)c2)CCNCC1` yielded a pKi [1] of 7.67 and a pKi [2] of 6.49.

`CCOC(=O)C1(c2ccc(-c3ccccc3)cc2)CCNCC1` gave a pKi [1] of 8.48 and a pKi [2] of 5.49.

`Fc1ccc([C@@H]2CCNC[C@H]2COc2ccc3c(c2)OCO3)cc1` [PAROXETINE HYDROCHLORIDE] showed a pKi (Transporter) of 7.23.

With `O=C(OCc1ccc(Cl)c(Cl)c1)C1(c2ccc3ccccc3c2)CCNCC1` the pKi (Transporter) was 4.78, the pKi [1] was 7.58 and the pKi [2] was 5.49.
